Experimental data as given in patent publication US8288145B2, “Medium supplement for virus production” (AVIR Green Hills Biotechnology, priority 2006, dated 2012).
Several values for one entry are separate records, joined by “and”; a condition that tells them apart may be missing. Identical values can stand only once.

Experiments:
[1] = tested on: Enzephalomyocarditis virus RNA; conditions: Borden E. et al. 1979, 1981; cited from earlier work
[2] = tested on: SV40 virus DNA; conditions: Borden E. et al. 1979, 1981; cited from earlier work
[3] = tested on: A/New Caledonia/20/99 (H1N1); format: cell-based, influenza A virus
[4] = tested on: A/Vienna/28/2006 (H3N2) (A/Wisconsin/67/2005-like); format: cell-based, influenza A virus
[5] = tested on: B/Vienna/32/2006 (B/Malaysia/2506/2004-like); format: cell-based, influenza B
[6] = tested on: A/New Caledonia/20/99 (H1N1)-like ΔNS1 virus; format: cell-based, influenza A virus
[7] = tested on: A/Wisconsin/67/2005 (H3N2)-like virus; format: cell-based, influenza A virus
[8] = tested on: influenza B virus; format: cell-based

| Compound | infectivity of viral RNA [1] | infectivity of viral DNA [2] | less virus obtained when no amphotericin B is added [3] [log] | higher virus titre if grown in the presence of amphotericin B [4] [log] | titre of B virus in the presence of amphotericin B [5] | increase of sensitivity (titre) of TCID50 titration [6] [log] | cytopathic effect of transfectant virus [7] | titre of transfectant virus [7] | clinical samples positive for virus isolation [8] |
| --- | --- | --- | --- | --- | --- | --- | --- | --- | --- |
| COC(=O)[C@H]1[C@@H]2C[C@@H](O[C@@H]3O[C@H](C)[C@@H](O)[C@H](N)[C@@H]3O)/C=C/C=C/C=C/C=C/C=C/C=C/C=C/[C@H](C)[C@@H](O)[C@@H](C)[C@H](C)OC(=O)C[C@H](O)C[C@H](O)CC[C@@H](O)[C@H](O)C[C@H](O)C[C@](O)(C[C@@H]1O)O2 [Amphotericin B methyl ester] | increase the infectivity | increase the infectivity | – | – | – | – | – | – | – |
| C[C@@H]1[C@H](O)[C@@H](C)/C=C/C=C/C=C/C=C/C=C/C=C/C=C/[C@H](O[C@@H]2O[C@H](C)[C@@H](O)[C@H](N)[C@@H]2O)C[C@@H]2O[C@](O)(C[C@@H](O)C[C@@H](O)[C@H](O)CC[C@@H](O)C[C@@H](O)CC(=O)O[C@H]1C)C[C@H](O)[C@H]2C(=O)O [amphotericin B] | – | – | 1 | ≥ 1 | more than 1E+08 pfu/ml | ~1 | clear cytopathic effect | 2E+04 TCID50/ml and 2.0E+04 TCID50/ml | 9 |
